# In patent US10413505B1, “Pharmaceutical compositions and methods of using the same” (priority 2017, dated 2019):
# How the values were obtained:
# [1] = Example 3 urinary pharmacokinetics, normal hepatic function vs hepatic impairment; assay type: in vivo, human; settings: subjects with hepatic impairment, 32 hours post administration
# Protocol: Urine was collected prior to dosing and from 0-2, 2-4, 4-8, 8-12, 12-24, and 24-32 hours after beginning of dose application. […] Urinary pharmacokinetic parameters included total urinary recovery (μg), urinary recovery as a percentage of dose, and CLr.
# [2] = Example 2 plasma pharmacokinetics, normal renal function vs severe renal impairment; settings: for AUC(0-t) / AUC(0-inf) / Cmax / Tmax / half-life: both, human, 160 mg
# [3] = normal renal function, single intranasal 160 mg cocaine HCl, plasma
# [4] = severe renal impairment vs normal renal function, ANOVA
# [5] = severe renal impairment, single intranasal 160 mg cocaine HCl, plasma
compound,measurement,setting,value
"COC(=O)[C@H]1[C@@H](OC(=O)c2ccccc2)C[C@@H]2CC[C@H]1N2C [Cocaine, cocaine, reference compound]",0-32 h Urinary Recovery (median),[1],193.5 µg
same,"CL/F (Geometric Least Squares Mean, ANOVA)","[2]; Impaired renal function (severe), single intranasal 160 mg cocaine HCl",1333 L/h
same,AUC(0-t),"[2]; plasma, inhaled or intranasal, AUC0→t (Geometric mean), normal renal function, single intranasal 160 mg cocaine HCl",78.7 ng·h/mL
same,AUC(0-t),"[2]; plasma, inhaled or intranasal, AUC0→t (Geometric mean), severe renal impairment, single intranasal 160 mg cocaine HCl",106 ng·h/mL
same,AUC(0-t),"[2]; plasma, inhaled or intranasal, AUC0→t (Mean), normal renal function, single intranasal 160 mg cocaine HCl",83.5 ng·h/mL
same,AUC(0-t),"[2]; plasma, inhaled or intranasal, AUC0→t (Mean), severe renal impairment, single intranasal 160 mg cocaine HCl",119 ng·h/mL
same,AUC(0-t),"[2]; plasma, inhaled or intranasal, AUC0→t (Median), normal renal function, single intranasal 160 mg cocaine HCl",91.6 ng·h/mL
same,AUC(0-t),"[2]; plasma, inhaled or intranasal, AUC0→t (Median), severe renal impairment, single intranasal 160 mg cocaine HCl",109 ng·h/mL
same,AUC(0-inf),"[2]; plasma, inhaled or intranasal, AUC0→∞ (Geometric mean), normal renal function, single intranasal 160 mg cocaine HCl",80.5 ng·h/mL
same,AUC(0-inf),"[2]; plasma, inhaled or intranasal, AUC0→∞ (Geometric mean), severe renal impairment, single intranasal 160 mg cocaine HCl",107 ng·h/mL
same,AUC(0-inf),"[2]; plasma, inhaled or intranasal, AUC0→∞ (Mean), normal renal function, single intranasal 160 mg cocaine HCl",85 ng·h/mL
same,AUC(0-inf),"[2]; plasma, inhaled or intranasal, AUC0→∞ (Mean), severe renal impairment, single intranasal 160 mg cocaine HCl",120 ng·h/mL
same,AUC(0-inf),"[2]; plasma, inhaled or intranasal, AUC0→∞ (Median), normal renal function, single intranasal 160 mg cocaine HCl",92.9 ng·h/mL
same,AUC(0-inf),"[2]; plasma, inhaled or intranasal, AUC0→∞ (Median), severe renal impairment, single intranasal 160 mg cocaine HCl",110 ng·h/mL
same,AUC(0-t),"[2]; plasma, inhaled or intranasal, AUClast (Geometric Least Squares Mean, ANOVA), Impaired renal function (severe), single intranasal 160 mg cocaine HCl",106 ng·h/mL
same,AUC(0-t),"[2]; plasma, inhaled or intranasal, AUClast (Geometric Least Squares Mean, ANOVA), Normal renal function, single intranasal 160 mg cocaine HCl",78.7 ng·h/mL
same,Cmax,"[2]; plasma, inhaled or intranasal, Cmax (Geometric Least Squares Mean, ANOVA), Impaired renal function (severe), single intranasal 160 mg cocaine HCl",47.9 ng/mL
same,Cmax,"[2]; plasma, inhaled or intranasal, Cmax (Geometric Least Squares Mean, ANOVA), Normal renal function, single intranasal 160 mg cocaine HCl",35.9 ng/mL
same,Cmax,"[2]; plasma, inhaled or intranasal, Cmax (Geometric mean), normal renal function, single intranasal 160 mg cocaine HCl",35.9 ng/mL
same,Cmax,"[2]; plasma, inhaled or intranasal, Cmax (Geometric mean), severe renal impairment, single intranasal 160 mg cocaine HCl",47.9 ng/mL
same,Cmax,"[2]; plasma, inhaled or intranasal, Cmax (Mean), normal renal function, single intranasal 160 mg cocaine HCl",38.1 ng/mL
same,Cmax,"[2]; plasma, inhaled or intranasal, Cmax (Mean), severe renal impairment, single intranasal 160 mg cocaine HCl",57.8 ng/mL
same,Cmax,"[2]; plasma, inhaled or intranasal, Cmax (Median), normal renal function, single intranasal 160 mg cocaine HCl",37 ng/mL
same,Cmax,"[2]; plasma, inhaled or intranasal, Cmax (Median), severe renal impairment, single intranasal 160 mg cocaine HCl",55.4 ng/mL
same,Cmax,"[2]; plasma, inhaled or intranasal, Cmax, range observed, renally impaired patients, soaked absorbent articles on nasal mucous membranes",21.9 to 93.7 ng/mL
same,Tmax,"[2]; plasma, inhaled or intranasal, Tmax (Geometric mean), normal renal function, single intranasal 160 mg cocaine HCl",0.518 h
same,Tmax,"[2]; plasma, inhaled or intranasal, Tmax (Geometric mean), severe renal impairment, single intranasal 160 mg cocaine HCl",0.429 h
same,Tmax,"[2]; plasma, inhaled or intranasal, Tmax (Mean), normal renal function, single intranasal 160 mg cocaine HCl",0.583 h
same,Tmax,"[2]; plasma, inhaled or intranasal, Tmax (Mean), severe renal impairment, single intranasal 160 mg cocaine HCl",0.448 h
same,Tmax,"[2]; plasma, inhaled or intranasal, Tmax (Median), severe renal impairment, single intranasal 160 mg cocaine HCl",0.417 h
same,Tmax,"[2]; plasma, inhaled or intranasal, median Tmax, normal renal function, single intranasal 160 mg cocaine HCl",0.5 h
same,half-life,"[2]; plasma, inhaled or intranasal, t1/2 (Geometric mean), normal renal function, single intranasal 160 mg cocaine HCl",4.12 h
same,half-life,"[2]; plasma, inhaled or intranasal, t1/2 (Geometric mean), severe renal impairment, single intranasal 160 mg cocaine HCl",5.42 h
same,half-life,"[2]; plasma, inhaled or intranasal, t1/2 (Mean), normal renal function, single intranasal 160 mg cocaine HCl",5 h
same,half-life,"[2]; plasma, inhaled or intranasal, t1/2 (Mean), severe renal impairment, single intranasal 160 mg cocaine HCl",6.02 h
same,half-life,"[2]; plasma, inhaled or intranasal, t1/2 (Median), normal renal function, single intranasal 160 mg cocaine HCl",3.89 h
same,half-life,"[2]; plasma, inhaled or intranasal, t1/2 (Median), severe renal impairment, single intranasal 160 mg cocaine HCl",6.39 h
same,AUC(0-inf),"[2]; plasma, other: intranasal (drug-soaked pledgets in the nasal cavity), AUCinf, range observed, renally impaired patients",61.2 to 180 ng·h/mL
same,Tmax,"[2]; plasma, other: intranasal (drug-soaked pledgets in the nasal cavity), Tmax, range observed, renally impaired patients",0.301 to 0.595 h
same,"CL/F (Geometric Least Squares Mean, ANOVA)","[2]; normal renal function, single intranasal 160 mg cocaine HCl",1774 L/h
same,AUC0→t (Max),[2]; [3],109.9 ng·h/mL
same,AUC0→t (Min),[2]; [3],34.29 ng·h/mL
same,AUC0→∞ (Max),[2]; [3],110.3 ng·h/mL
same,AUC0→∞ (Min),[2]; [3],37.67 ng·h/mL
same,Clast (Geometric mean),[2]; [3],0.209 ng/mL
same,Clast (Max),[2]; [3],0.626 ng/mL
same,Clast (Mean),[2]; [3],0.263 ng/mL
same,Clast (Median),[2]; [3],0.154 ng/mL
same,Clast (Min),[2]; [3],0.114 ng/mL
same,Cmax (Max),[2]; [3],62.7 ng/mL
same,Cmax (Min),[2]; [3],16.7 ng/mL
same,Tlast (Geometric mean),[2]; [3],20.6 h
same,Tlast (Max),[2]; [3],32.0 h
same,Tlast (Mean),[2]; [3],22.5 h
same,Tlast (Median),[2]; [3],24.0 h
same,Tlast (Min),[2]; [3],720 min
same,Tmax (Max),[2]; [3],1.500 h
same,t1/2 (Max),[2]; [3],10.67 h
same,t1/2 (Min),[2]; [3],124 min
same,"CL/F, percent lower than in normal subjects",[2]; renal impairment vs normal renal function,approximately 25%
same,"plasma exposure (geometric mean Cmax, AUC), percent higher than in normal subjects",[2]; severe renal impairment vs normal renal function,approximately 33%
same,AUClast Ratio Impaired/Normal,[2]; [4],134.46%
same,CL/F Ratio Impaired/Normal,[2]; [4],75.13%
same,Cmax Ratio Impaired/Normal,[2]; [4],133.28%
same,AUC0→t (Max),[2]; [5],221 ng·h/mL
same,AUC0→t (Min),[2]; [5],43.0 ng·h/mL
same,AUC0→∞ (Max),[2]; [5],227 ng·h/mL
same,AUC0→∞ (Min),[2]; [5],44.2 ng·h/mL
same,Clast (Geometric mean),[2]; [5],0.159 ng/mL
same,Clast (Max),[2]; [5],0.432 ng/mL
same,Clast (Mean),[2]; [5],0.186 ng/mL
same,Clast (Median),[2]; [5],0.131 ng/mL
same,Clast (Min),[2]; [5],0.102 ng/mL
same,Cmax (Max),[2]; [5],131.0 ng/mL
same,Cmax (Min),[2]; [5],14.1 ng/mL
same,Tlast (Geometric mean),[2]; [5],26.9 h
same,Tlast (Max),[2]; [5],32.0 h
same,Tlast (Mean),[2]; [5],28.0 h
same,Tlast (Median),[2]; [5],32.0 h
same,Tlast (Min),[2]; [5],720 min
same,t1/2 (Max),[2]; [5],8.65 h
same,t1/2 (Min),[2]; [5],91.8 min
